The source of these data is ChEMBL document CHEMBL4602621, “Optimization of cyclic sulfamide derivatives as 11β-hydroxysteroid dehydrogenase 1 inhibitors for the potential treatment of ischemic brain injury” (Bioorg Med Chem Lett, 2020).

The target in data set [1] is 11-beta-hydroxysteroid dehydrogenase 1 (Mus musculus) (UniProt P50172). Put plainly: In vivo inhibition of 11 beta-HSD1 in brain of mouse at 20 mg/kg, po relative to control. It counts as functional, organism-based.
Data set [2] concerns the target 11-beta-hydroxysteroid dehydrogenase 1 (Mus musculus, UniProt P50172). Description: Inhibition of mouse 11beta-HSD1 expressed in CHOK1 cells using XL665-labeled cortisol as substrate measured after 24 hrs by HTRF assay. It counts as cell-based, CHO-K1. (In general: TR-FRET usually uses a lanthanide donor and a delayed reading to cut background.)
Data set [3] deals with 11-beta-hydroxysteroid dehydrogenase 1 (Homo sapiens, UniProt P28845). Put plainly: Inhibition of human 11beta-HSD1 expressed in CHOK1 cells using XL665-labeled cortisol as substrate measured after 24 hrs by HTRF assay. It counts as cell-based, CHO-K1.
11-beta-hydroxysteroid dehydrogenase 1 (Homo sapiens, UniProt P28845), sequence (P28845 whole entry): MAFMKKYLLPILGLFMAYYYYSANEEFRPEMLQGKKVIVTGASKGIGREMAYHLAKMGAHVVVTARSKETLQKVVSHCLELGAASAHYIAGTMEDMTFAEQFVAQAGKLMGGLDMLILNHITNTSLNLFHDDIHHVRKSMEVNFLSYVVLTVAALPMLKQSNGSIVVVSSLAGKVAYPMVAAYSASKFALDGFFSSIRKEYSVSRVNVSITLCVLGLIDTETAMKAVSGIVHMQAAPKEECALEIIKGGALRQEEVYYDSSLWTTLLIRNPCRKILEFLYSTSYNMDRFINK
Data set [4] deals with 11-beta-hydroxysteroid dehydrogenase 1 (Mus musculus) (UniProt P50172). Put plainly: Ex vivo inhibition of 11 beta-HSD1 in brain of iv dosed mouse by measuring cortisol amount after 1 hr by ELISA. Format: functional, organism-based.
Data set [5] can be described thus: Ratio of drug concentration in brain to plasma of mouse at 10 mg/kg, ip administered as single dose measured at 3 hrs. Format: ADME, organism-based. The following applies: read-out: BPR.
The test system of data set [6] is Mus musculus. Put plainly: Neuroprotective activity in mouse model of middle cerebral artery occlusion-induced ischemia-reperfusion injury assessed as reduction in cerebral infarct area at 10 to 30 mg/kg, ip administered twice at 1 to 5 hrs post induction of ischemia followed by 24 hrs of reperfusion by TTC staining based assay. Format: functional, organism-based.

The nature of data set [7]: Drug level in plasma of mouse at 10 mg/kg, ip administered as single dose measured at 0.5 hrs. It counts as ADME, organism-based.
The subject of data set [8] is Mus musculus. Description: Neuroprotective activity in mouse model of middle cerebral artery occlusion-induced ischemia-reperfusion injury assessed as cerebral infarct volume at 10 mg/kg, ip administered twice at 1 to 5 hrs post induction of ischemia followed by 24 hrs of reperfusion by TTC staining based assay (reference value: 90.3 +/- 6 mm3). It counts as functional.

The nature of data set [9]: Drug level in brain of mouse at 10 mg/kg, ip administered as single dose measured at 0.5 hrs. The note with it: read-out: Drug uptake. It counts as ADME, organism-based.
The nature of data set [10]: Ratio of drug concentration in brain to plasma of mouse at 10 mg/kg, ip administered as single dose measured at 0.5 hrs. Format: ADME, organism-based. The note with it: read-out: BPR.
In data set [11] the test system is Mus musculus. Put plainly: Neuroprotective activity in mouse model of middle cerebral artery occlusion-induced ischemia-reperfusion injury assessed as cerebral infarct volume at 30 mg/kg, ip administered twice at 1 to 5 hrs post induction of ischemia followed by 24 hrs of reperfusion by TTC staining based assay (reference value: 90.3 +/- 6 mm3). Format: functional.

Data set [12] can be described thus: Drug level in brain of mouse at 10 mg/kg, ip administered as single dose measured at 3 hrs. The following applies: read-out: Drug uptake. It counts as ADME, organism-based.
The nature of data set [13]: Drug level in plasma of mouse at 10 mg/kg, ip administered as single dose measured at 3 hrs. Format: ADME, organism-based.
Data set [14] has as its target 11-beta-hydroxysteroid dehydrogenase 1 (Mus musculus) (UniProt P50172). Description: In vivo inhibition of 11 beta-HSD1 in brain of mouse at 30 mg/kg, po relative to control. Format: functional, organism-based.

The source made the active and inactive calls. The calls are words filed in the database; no cut-off is given here.

11-beta-hydroxysteroid dehydrogenase 1 (Mus musculus), sequence (P50172 whole entry, looked up): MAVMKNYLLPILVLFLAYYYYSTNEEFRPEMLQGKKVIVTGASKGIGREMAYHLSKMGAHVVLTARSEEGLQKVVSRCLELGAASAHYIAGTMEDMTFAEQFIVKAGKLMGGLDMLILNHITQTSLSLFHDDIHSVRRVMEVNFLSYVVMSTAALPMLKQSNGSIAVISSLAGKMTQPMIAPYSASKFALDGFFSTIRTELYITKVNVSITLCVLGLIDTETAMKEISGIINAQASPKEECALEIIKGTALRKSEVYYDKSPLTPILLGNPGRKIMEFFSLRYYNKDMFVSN
11-beta-hydroxysteroid dehydrogenase 1 (Mus musculus, UniProt P50172), sequence (P50172 whole entry): as the sequence (P50172 whole entry, looked up) above

Turning to `Cc1cc(Cl)c(N2CC(C)CN(CC(=O)NC3C4CC5CC3CC(C(N)=O)(C5)C4)S2(=O)=O)c(Cl)c1` (stereo not given), the inhibition (as a rule, the drop in the measured response relative to a control, in per cent) in data set [1] was 69%. Further, the IC50 (as a rule, the concentration at which inhibition is half-maximal) in data set [2] came to 3.7 nM.

For the compound `CC1CN(CC(=O)NC2C3CC4CC2CC(C(N)=O)(C4)C3)S(=O)(=O)N(c2c(Cl)cc(-c3ccco3)cc2Cl)C1` (stereo not given), inhibition in data set [2] was half-maximal at 68 nM (IC50).

`CC1CN(CC(=O)NC2C3CC4CC2CC(C(N)=O)(C4)C3)S(=O)(=O)N(c2ccccn2)C1` (stereo not given): the IC50 in data set [2] is 1210 nM.

For `CC1CN(CC(=O)NC2C3CC4CC2CC(C(N)=O)(C4)C3)S(=O)(=O)N(c2c(Cl)cc(C(F)(F)F)cc2Cl)C1` (stereo not given), the IC50 in data set [3] and in [2] was 1 nM each time. The inhibition entry in [4] is “Dose-dependent effect”; in [1] it was 82%. The Kp at 3 h in [5] turned out to be 0.53. The result with Mus musculus [6] was Active. Also, the concentration at 0.5 h is 4770 ng/mL in data set [7] and 1780 ng/mL in [9]. Further, the Activity is 66.2 mm3 in the data set on Mus musculus [8] and 59 mm3 with Mus musculus [11]. In addition, the Kp at 0.5 h in data set [10] was found to be 0.38. Also, the concentration at 3 h is 670 ng/mL in [12] and 1310 ng/mL in data set [13].

`CC1CN(CC(=O)NC2C3CC4CC2CC(C(N)=O)(C4)C3)S(=O)(=O)N(c2c(Cl)cc(Br)cc2Cl)C1` (stereo not given) came in with an inhibition in data set [1] of 41.1%.

In the case of `CC1CN(CC(=O)NC2C3CC4CC2CC(C(N)=O)(C4)C3)S(=O)(=O)N(c2ccc(C(F)(F)F)cn2)C1` (stereo not given), 940 nM corresponded to half-maximal inhibition in [2] (IC50).

In the case of `NC(=O)C12CC3CC(C1)C(NC(=O)CN1CCCN(c4c(Cl)cc(C(F)(F)F)cc4Cl)S1(=O)=O)C(C3)C2` (stereo not given), in data set [1], the inhibition was found to be 45.8%.

In data set [2], `CC(C)C1CN(CC(=O)NC2C3CC4CC2CC(C(N)=O)(C4)C3)S(=O)(=O)N(c2c(Cl)cc(C(F)(F)F)cc2Cl)C1` (stereo not given) yielded an IC50 of 2800 nM. This lies in the single-digit micromolar range.

`CC1CN(CC(=O)NC2C3CC4CC2CC(C(N)=O)(C4)C3)S(=O)(=O)N(c2c(Cl)cc(-c3ccccc3)cc2Cl)C1` (stereo not given) yielded an IC50 in [2] of 174 nM.

Consider `CCC1CN(CC(=O)NC2C3CC4CC2CC(C(N)=O)(C4)C3)S(=O)(=O)N(c2c(Cl)cc(C(F)(F)F)cc2Cl)C1` (stereo not given), for which, in [2], the midpoint of inhibition, the IC50, lay at 695 nM.

`CC1CN(CC(=O)NC2C3CC4CC2CC(C(N)=O)(C4)C3)S(=O)(=O)N(c2c(Cl)cc(Cl)cc2Cl)C1` (stereo not given): in [14], the inhibition is 66%. Besides, the IC50 in [2] came out at 2 nM.
